Measured values as given in patent US11149030B2, “Plants having increased tolerance to herbicides” (BASF AGRO B.V., priority 2016, dated 2021).
Where “and” joins values, the source holds several entries; their conditions need not be identical. Identical values can stand only once.

Test system: T2 soybean events expressing the indicated Amaranthus PPO2 variant transgene
Experiment: Soybean PPO inhibitor tolerance testing, injury score (Table C)
Type: in vivo, Soybean cv Jake
Conditions: V2 stage, 3 days after treatment, individual plants
Description: Soybean cv Jake is transformed as previously described by Siminszky et al., Phytochem Rev. 5:445-458 (2006). After regeneration, transformants are transplanted to soil in small pots, placed in growth chambers (16 hr day/8 hr night; 25° C. day/23° C. night; 65% relative humidity; 130-150 microE m-2 s-1) and subsequently tested for the presence of the T-DNA via Taqman analysis. After a few weeks, healthy, transgenic positive, single copy events are transplanted to larger pots and allowed to grow in the growth chamber. An optimal shoot for cutting is about 3-4 inches tall, with at least two nodes present. Each cutting is taken from the original transformant (mother plant) and dipped into rooting hormone powder (indole-3-butyric acid, IBA). The cutting is then placed in oasis wedges inside a bio-dome. The mother plant is taken to maturity in the greenhouse and harvested for seed. Wild type cuttings are also taken simultaneously to serve as negative controls. The cuttings are kept in the bio-dome for 5-7 days and then transplanted to 3 inch pots and then acclimated in the growth chamber for two more days. Subsequently, the cuttings are transferred to the greenhouse, acclimated for approximately 4 days prior to spray. […] g ai/ha saflufenacil plus 1% MSO and/or 25-200 g ai/ha 1,5-dimethyl-6-thioxo-3-(2,2,7-trifluoro-3-oxo-4-(prop-2-ynyl)-3,4-dihydro-2H-benzo[b][1,4]oxazin-6-yl)-1,3,5-triazinane-2,4-dione (CAS 1258836-72-4) plus 1% MSO. Other PPO inhibiting herbicides are also tested in a similar fashion for confirming cross resistance: flumioxazin, butafenacil, acifluorfen, lactofen, bifenox, sulfentrazone, methyl 2-[2-chloro-5-[3-chloro-5-(trifluoromethyl)-2-pyridyl]-4-fluoro-phenoxy]-2-methoxy-acetate, ethyl 2-[2-chloro-5-[3-chloro-5-(trifluoromethyl)-2-pyridyl]-4-fluoro-phenoxy]-2-methoxy-acetate, prop-2-ynyl 2-[2-chloro-5-[3-chloro-5-(trifluoromethyl)-2-pyridyl]-4-fluoro-phenoxy]-2-methoxy-acetate and photosynthesis inhibitor diuron as negative control. […]
The following gives a definition of the injury scores measured above: […]

COC(=O)C(OC)Oc1cc(-c2ncc(C(F)(F)F)cc2Cl)c(F)cc1Cl (stereo not shown) [methyl 2-[2-chloro-5-[3-chloro-5-(trifluoromethyl)-2-pyridyl]-4-fluoro-phenoxy]-2-methoxy-acetate]
injury on a 0-9 point scale (soybean T2, transgene L397E_F420M, 25 g ai/ha + 1% v/v MSO): 1 | injury on a 0-9 point scale (soybean T2, transgene L397E_F420M, 50 g ai/ha + 1% v/v MSO): 3 and 4 | injury on a 0-9 point scale (soybean T2, transgene L397E_F420M, 100 g ai/ha + 1% v/v MSO): 3 and 4 and 9 | injury on a 0-9 point scale (soybean T2, transgene L397E_F420M, 200 g ai/ha + 1% v/v MSO): 3 (2×) and 4 | injury on a 0-9 point scale (soybean T2, transgene L397Q_F420M, 25 g ai/ha + 1% v/v MSO): 1 and 0 and 9 | injury on a 0-9 point scale (soybean T2, transgene L397Q_F420M, 50 g ai/ha + 1% v/v MSO): 9 and 1 | injury on a 0-9 point scale (soybean T2, transgene L397Q_F420M, 100 g ai/ha + 1% v/v MSO): 3 | injury on a 0-9 point scale (soybean T2, transgene L397Q_F420M, 200 g ai/ha + 1% v/v MSO): 3 and 9 and 4 | injury on a 0-9 point scale (soybean T2, transgene R128A_F420I event 1, 25 g ai/ha + 1% v/v MSO): 0 | injury on a 0-9 point scale (soybean T2, transgene R128A_F420I event 1, 50 g ai/ha + 1% v/v MSO): 1 and 2 (2×) | injury on a 0-9 point scale (soybean T2, transgene R128A_F420I event 1, 100 g ai/ha + 1% v/v MSO): 2 (2×) and 3 | injury on a 0-9 point scale (soybean T2, transgene R128A_F420I event 1, 200 g ai/ha + 1% v/v MSO): 4 (2×) and 3 | injury on a 0-9 point scale (soybean T2, transgene R128A_F420I event 2, 25 g ai/ha + 1% v/v MSO): 0 and 9 | injury on a 0-9 point scale (soybean T2, transgene R128A_F420I event 2, 50 g ai/ha + 1% v/v MSO): 3 (2×) and 4 | injury on a 0-9 point scale (soybean T2, transgene R128A_F420I event 2, 100 g ai/ha + 1% v/v MSO): 1 and 3 | injury on a 0-9 point scale (soybean T2, transgene R128A_F420I event 2, 200 g ai/ha + 1% v/v MSO): 5 (2×) and 4 | injury on a 0-9 point scale (soybean T2, transgene R128A_F420I event 3, 25 g ai/ha + 1% v/v MSO): 0 | injury on a 0-9 point scale (soybean T2, transgene R128A_F420I event 3, 50 g ai/ha + 1% v/v MSO): 1 and 2 and 0 | injury on a 0-9 point scale (soybean T2, transgene R128A_F420I event 3, 100 g ai/ha + 1% v/v MSO): 1 and 3 | injury on a 0-9 point scale (soybean T2, transgene R128A_F420I event 3, 200 g ai/ha + 1% v/v MSO): 4 | injury on a 0-9 point scale (soybean T2, transgene R128A_F420V, 25 g ai/ha + 1% v/v MSO): 2 and 1 | injury on a 0-9 point scale (soybean T2, transgene R128A_F420V, 50 g ai/ha + 1% v/v MSO): 4 and 9 | injury on a 0-9 point scale (soybean T2, transgene R128A_F420V, 100 g ai/ha + 1% v/v MSO): 4 | injury on a 0-9 point scale (soybean T2, transgene R128A_F420V, 200 g ai/ha + 1% v/v MSO): 9 and 4 and 5 | injury on a 0-9 point scale (soybean, Non transgenic, 25 g ai/ha + 1% v/v MSO): 9 (2×) and 8 | injury on a 0-9 point scale (soybean, Non transgenic, 50 g ai/ha + 1% v/v MSO): 9 | injury on a 0-9 point scale (soybean, Non transgenic, 100 g ai/ha + 1% v/v MSO): 9 | injury on a 0-9 point scale (soybean, Non transgenic, 200 g ai/ha + 1% v/v MSO): 9 (2×) and 8
